Results from US20260207602A1, “EGFR INHIBITORS” (Blueprint Medicines Corporation, priority 2022, published 2026).
pIC50: −log10 of the molar value.

Assays:
EGFR L858R = biological target: T1, EGFR L858R (Homo sapiens, UniProt P00533, L858R); assay: Biochemical EGFR inhibition assay (Caliper mobility shift), EGFR L858R; conditions: biochemical Caliper mobility shift assay, EGFR L858R enzyme; read-out: Enz EGFR L858R IC50
T1 construct: purchased SignalChem E10-122BG
Outline: (§1)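 Apparent IC50 values come from Caliper electrophoretic separation of phosphorylated and unphosphorylated 5-FAM peptide (2.5 μM). ATP was either 1.0 mM or at Km; HEPES pH 7.5 buffer with MgCl2, DTT, 1% DMSO. Reactions ran at 25 °C until 10–20% phosphorylated, then EDTA quench.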

EGFR (d746-750) = biological target: T2, EGFR (d746-750) (Homo sapiens, UniProt P00533, DEL746-750); assay: Biochemical EGFR inhibition assay (Caliper mobility shift), EGFR (d746-750); conditions: biochemical Caliper mobility shift assay, EGFR Exon 19-del enzyme; read-out: Enz EGFR Exon 19-del IC50
T2 construct: purchased SignalChem E10-122JG
T2 sequence (P00533 with tags, fused parts or gaps DEL746-750 limits assumed): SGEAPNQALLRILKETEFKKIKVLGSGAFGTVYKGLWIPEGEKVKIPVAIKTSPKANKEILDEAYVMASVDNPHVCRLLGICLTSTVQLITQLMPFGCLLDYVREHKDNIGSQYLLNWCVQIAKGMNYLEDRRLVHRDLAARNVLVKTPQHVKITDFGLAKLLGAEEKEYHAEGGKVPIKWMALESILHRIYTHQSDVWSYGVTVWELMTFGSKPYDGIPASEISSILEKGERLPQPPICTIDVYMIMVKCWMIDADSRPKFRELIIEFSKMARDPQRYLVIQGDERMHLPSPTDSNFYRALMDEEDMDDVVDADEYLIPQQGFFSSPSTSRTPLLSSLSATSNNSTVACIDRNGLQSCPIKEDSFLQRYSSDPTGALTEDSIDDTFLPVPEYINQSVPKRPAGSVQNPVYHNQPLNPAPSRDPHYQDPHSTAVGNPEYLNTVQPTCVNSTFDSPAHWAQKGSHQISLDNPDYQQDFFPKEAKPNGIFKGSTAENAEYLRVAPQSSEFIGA
Outline: as §1

[1] = biological target: intracellular phosphorylation of EGFR (Tyr1068) in PC-9 cells (Homo sapiens, UniProt P00533, DEL746-750); assay: PC-9 pEGFR AlphaLISA assay; assay type: cell-based; conditions: 4 hours incubation, read-out: Phos EGFR PC9 IC50
Sequence of intracellular phosphorylation of EGFR (Tyr1068) in PC-9 cells (P00533 with tags, fused parts or gaps DEL746-750): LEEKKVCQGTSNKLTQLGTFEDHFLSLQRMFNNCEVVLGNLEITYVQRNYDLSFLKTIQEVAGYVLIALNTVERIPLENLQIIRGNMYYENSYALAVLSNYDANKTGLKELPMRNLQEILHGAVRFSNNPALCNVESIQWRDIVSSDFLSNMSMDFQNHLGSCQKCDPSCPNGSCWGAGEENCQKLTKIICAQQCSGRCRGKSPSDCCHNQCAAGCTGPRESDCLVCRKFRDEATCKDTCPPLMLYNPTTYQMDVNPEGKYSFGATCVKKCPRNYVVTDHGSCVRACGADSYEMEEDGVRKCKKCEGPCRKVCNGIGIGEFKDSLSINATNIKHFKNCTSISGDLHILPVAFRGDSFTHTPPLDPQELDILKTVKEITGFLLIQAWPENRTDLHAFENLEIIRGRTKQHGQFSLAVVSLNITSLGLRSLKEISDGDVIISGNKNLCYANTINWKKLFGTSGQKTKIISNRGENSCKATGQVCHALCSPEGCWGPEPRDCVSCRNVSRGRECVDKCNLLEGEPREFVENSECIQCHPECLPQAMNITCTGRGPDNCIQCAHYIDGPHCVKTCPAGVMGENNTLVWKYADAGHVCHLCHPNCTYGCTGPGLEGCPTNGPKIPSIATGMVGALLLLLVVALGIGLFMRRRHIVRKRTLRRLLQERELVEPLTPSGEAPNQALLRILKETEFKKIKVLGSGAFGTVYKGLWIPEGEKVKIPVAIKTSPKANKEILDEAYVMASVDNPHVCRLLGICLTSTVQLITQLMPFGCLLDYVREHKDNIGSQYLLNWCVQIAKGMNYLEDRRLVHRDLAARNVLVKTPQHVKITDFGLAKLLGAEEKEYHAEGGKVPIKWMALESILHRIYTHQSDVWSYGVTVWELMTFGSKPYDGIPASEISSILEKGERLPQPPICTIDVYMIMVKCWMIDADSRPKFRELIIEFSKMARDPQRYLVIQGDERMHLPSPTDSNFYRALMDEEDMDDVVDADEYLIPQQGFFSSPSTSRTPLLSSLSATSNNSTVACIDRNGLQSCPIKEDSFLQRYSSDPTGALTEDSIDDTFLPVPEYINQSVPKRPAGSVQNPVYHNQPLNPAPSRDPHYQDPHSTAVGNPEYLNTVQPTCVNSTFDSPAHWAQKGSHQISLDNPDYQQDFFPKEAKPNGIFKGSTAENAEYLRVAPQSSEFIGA
Outline: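 PC-9 cells (EGFR del746-750) in phenol-free DMEM/10% FBS, adhered overnight, then exposed to 10-point 4-fold compound dilutions for 4 h at 37 °C. Lysates assayed for pEGFR Tyr1068 by AlphaLISA SureFire Ultra; IC50 from percent pEGFR inhibition vs log concentration.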

T1 sequence (P00533 25-1210 L858R): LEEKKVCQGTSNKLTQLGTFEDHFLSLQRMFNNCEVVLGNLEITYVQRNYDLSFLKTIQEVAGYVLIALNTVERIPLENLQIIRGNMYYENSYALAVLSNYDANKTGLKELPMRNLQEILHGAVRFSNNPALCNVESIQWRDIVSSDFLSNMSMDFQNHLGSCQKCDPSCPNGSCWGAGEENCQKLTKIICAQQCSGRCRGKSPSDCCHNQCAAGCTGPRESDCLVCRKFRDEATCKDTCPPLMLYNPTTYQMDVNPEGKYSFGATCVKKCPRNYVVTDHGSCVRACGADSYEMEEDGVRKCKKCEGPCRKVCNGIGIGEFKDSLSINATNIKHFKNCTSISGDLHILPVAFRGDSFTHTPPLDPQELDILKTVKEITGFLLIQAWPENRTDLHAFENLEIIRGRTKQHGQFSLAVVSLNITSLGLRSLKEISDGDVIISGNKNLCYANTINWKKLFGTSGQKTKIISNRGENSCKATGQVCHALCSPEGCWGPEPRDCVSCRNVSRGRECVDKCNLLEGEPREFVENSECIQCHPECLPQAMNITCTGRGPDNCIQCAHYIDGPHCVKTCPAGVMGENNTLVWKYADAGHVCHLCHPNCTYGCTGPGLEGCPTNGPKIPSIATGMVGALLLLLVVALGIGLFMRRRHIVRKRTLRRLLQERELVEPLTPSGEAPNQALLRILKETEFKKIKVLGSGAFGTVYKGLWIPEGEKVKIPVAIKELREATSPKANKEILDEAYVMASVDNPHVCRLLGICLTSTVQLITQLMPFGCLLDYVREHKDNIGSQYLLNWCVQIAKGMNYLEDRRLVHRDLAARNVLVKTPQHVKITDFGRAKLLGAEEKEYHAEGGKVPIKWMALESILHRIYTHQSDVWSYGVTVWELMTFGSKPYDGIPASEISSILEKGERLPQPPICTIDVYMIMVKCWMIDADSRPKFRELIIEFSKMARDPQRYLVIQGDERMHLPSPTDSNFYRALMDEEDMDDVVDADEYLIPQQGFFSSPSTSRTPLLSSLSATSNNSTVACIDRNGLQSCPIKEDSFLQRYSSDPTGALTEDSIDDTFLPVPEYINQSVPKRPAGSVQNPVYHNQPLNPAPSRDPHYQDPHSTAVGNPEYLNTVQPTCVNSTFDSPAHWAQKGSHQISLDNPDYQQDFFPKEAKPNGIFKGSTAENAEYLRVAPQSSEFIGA

| SMILES | pIC50 (EGFR L858R) | pIC50 (EGFR (d746-750)) | pIC50 [1] |
| --- | --- | --- | --- |
| CO[C@@H]1CCN(C)C[C@H]1Oc1cc(-c2cnn(C)c2)cc2ncnc(Nc3ccc4ncsc4c3)c12 (single isomer, unassigned) [Example A40] | ≥ 8.00 | ≥ 8.00 | 7.30 to 8.00 |
| CN1CC[C@H](Oc2cc(-c3cnn(C)c3)cc3ncnc(Nc4ccc5ncsc5c4)c23)[C@@H](O)C1 (single isomer, unassigned) [Example A35] | ≥ 8.00 | ≥ 8.00 | 7.30 to 8.00 |
| CCN1CCN(C(=O)Nc2cc3c(Nc4ccc5ncsc5c4)ncnc3cc2-c2ccn(C)n2)CC1 [Example 253, N-(4-(benzo[d]thiazol-6-ylamino)-7-(1-methyl-1H-pyrazol-3-yl)quinazolin-6-yl)-4-ethylpiperazine-1-carboxamide] | ≥ 8.00 | ≥ 8.00 | ≥ 8.00 |
| COc1nn(C)cc1-c1cc(OC2CCN(C3COC3)CC2)c2c(Nc3ccc4ncsc4c3)ncnc2c1 [Example 306, N-(7-(3-methoxy-1-methyl-1H-pyrazol-4-yl)-5-((1-(oxetan-3-yl)piperidin-4-yl)oxy)quinazolin-4-yl)benzo[d]thiazol-6-amine] | ≥ 8.00 | ≥ 8.00 | ≥ 8.00 |
| CCN1CC[C@H](Oc2cc(-c3cnn(C)c3)cc3ncnc(Nc4ccc5ncsc5c4)c23)C1=O (single isomer, unassigned) [Example 60, (S)-3-((4-(benzo[d]thiazol-6-ylamino)-7-(1-methyl-1H-pyrazol-4-yl)quinazolin-5-yl)oxy)-1-ethylpyrrolidin-2-one or (R)-3-((4-(benzo[d]thiazol-6-ylamino)-7-(1-methyl-1H-pyrazol-4-yl)quinazolin-5-yl)oxy)-1-ethylpyrrolidin-2-one] | ≥ 8.00 | ≥ 8.00 | 7.30 to 8.00 |
| C[C@@H](Oc1cc(-c2cnn(C)c2)cc2ncnc(Nc3ccc4ncsc4c3F)c12)[C@@H]1CCCO1 [Example 112, 7-fluoro-N-(7-(1-methyl-1H-pyrazol-4-yl)-5-((R)-1-((S)-tetrahydrofuran-2-yl)ethoxy)quinazolin-4-yl)benzo[d]thiazol-6-amine] | ≥ 8.00 | ≥ 8.00 | ≥ 8.00 |
| Cn1cc(-c2cc(O[C@H]3CC[C@@H](N)CC3)c3c(Nc4ccc5ncsc5c4)ncnc3c2)cn1 [Example A09, N-(5-(((1s,4s)-4-aminocyclohexyl)oxy)-7-(1-methyl-1H-pyrazol-4-yl)quinazolin-4-yl)benzo[d]thiazol-6-amine] | ≥ 8.00 | ≥ 8.00 | ≥ 8.00 |
| COc1cn(C)nc1-c1cc(O[C@H](C)C2COC2)c2c(Nc3ccc4ncsc4c3F)ncnc2c1 (single isomer, unassigned) [Example 80] | ≥ 8.00 | ≥ 8.00 | ≥ 8.00 |
| CCN1CCN(C(=O)Nc2cc3c(Nc4ccc5ncsc5c4F)ncnc3cc2-c2ccn(C)n2)[C@@H](C)C1 [Example 398, (S)-4-ethyl-N-(4-((7-fluorobenzo[d]thiazol-6-yl)amino)-7-(1-methyl-1H-pyrazol-3-yl)quinazolin-6-yl)-2-methylpiperazine-1-carboxamide] | ≥ 8.00 | ≥ 8.00 | ≥ 8.00 |
| COc1cc2ncnc(Nc3ccc4ncsc4c3F)c2cc1-c1cnn(C2CCN(C)CC2)c1 [Example 240, 7-fluoro-N-(7-methoxy-6-(1-(1-methylpiperidin-4-yl)-1H-pyrazol-4-yl)quinazolin-4-yl)benzo[d]thiazol-6-amine] | ≥ 8.00 | ≥ 8.00 | ≥ 8.00 |
| CCN1CCN(C(=O)Nc2cc3c(Nc4ccc5ncsc5c4)ncnc3cc2-c2ccn(C)n2)[C@H](C)C1 [Example 397, (R)-N-(4-(benzo[d]thiazol-6-ylamino)-7-(1-methyl-1H-pyrazol-3-yl)quinazolin-6-yl)-4-ethyl-2-methylpiperazine-1-carboxamide] | ≥ 8.00 | ≥ 8.00 | ≥ 8.00 |
| [2H]C([2H])([2H])Oc1cc(O[C@H](C)C2COC2)c2c(Nc3ccc4ncsc4c3F)ncnc2c1 [Example 130, (R)-7-fluoro-N-(7-(methoxy-d3)-5-(1-(oxetan-3-yl)ethoxy)quinazolin-4-yl)benzo[d]thiazol-6-amine] | ≥ 8.00 | ≥ 8.00 | ≥ 8.00 |
| COCCN1CCC(Oc2cc(-c3cnn(C)c3)cc3ncnc(Nc4ccc5ncsc5c4)c23)CC1 [Example 313, N-(5-((1-(2-methoxyethyl)piperidin-4-yl)oxy)-7-(1-methyl-1H-pyrazol-4-yl)quinazolin-4-yl)benzo[d]thiazol-6-amine] | ≥ 8.00 | ≥ 8.00 | 7.30 to 8.00 |
| COc1nn(C)cc1-c1cc(O[C@H](C)C2COC2)c2c(Nc3ccc4ncsc4c3F)ncnc2c1 (single isomer, unassigned) [Example 78] | ≥ 8.00 | ≥ 8.00 | ≥ 8.00 |
| COC[C@H](C)Oc1cc(N2CCN(C)CC2)cc2ncnc(Nc3ccc4ncsc4c3)c12 (single isomer, unassigned) [Example 205] | ≥ 8.00 | ≥ 8.00 | 7.30 to 8.00 |
| COC[C@@H](C)Oc1cc(N2CCNCC2)cc2ncnc(Nc3ccc4ncsc4c3)c12 [Example 195, (R)-N-(5-((1-methoxypropan-2-yl)oxy)-7-(piperazin-1-yl)quinazolin-4-yl)benzo[d]thiazol-6-amine] | ≥ 8.00 | ≥ 8.00 | 7.30 to 8.00 |
| C[C@@H](Oc1cc(N2CCN(C)CC2)cc2ncnc(Nc3ccc4ncsc4c3)c12)C1COC1 (single isomer, unassigned) [Example 96] | ≥ 8.00 | ≥ 8.00 | 7.30 to 8.00 |
| Cn1cc(-c2cc(O[C@H]3CC[C@@H](N(C)C)CC3)c3c(Nc4ccc5ncsc5c4)ncnc3c2)cn1 [Example 22, N-(5-(((1s,4s)-4-(dimethylamino)cyclohexyl)oxy)-7-(1-methyl-1H-pyrazol-4-yl)quinazolin-4-yl)benzo[d]thiazol-6-amine] | ≥ 8.00 | ≥ 8.00 | ≥ 8.00 |
| Cn1cc(-c2cc(O[C@H]3CCOC3)c3c(Nc4ccc5ncsc5c4)ncnc3c2)cn1 [Example 36, (S)-N-(7-(1-methyl-1H-pyrazol-4-yl)-5-((tetrahydrofuran-3-yl)oxy)quinazolin-4-yl)benzo[d]thiazol-6-amine] | ≥ 8.00 | ≥ 8.00 | ≥ 8.00 |
| CN1CC[C@@H](Nc2cc3c(Nc4ccc5ncsc5c4)ncnc3cc2-c2cnn(C)c2)[C@H](F)C1 (single isomer, unassigned) [Example 325] | 7.30 to 8.00 | ≥ 8.00 | < 7.30 |
| COc1nn(C)cc1-c1cc(O[C@@H]2CCNC[C@@H]2F)c2c(Nc3ccc4ncsc4c3)ncnc2c1 [Example 363, N-(5-(((3S,4R)-3-fluoropiperidin-4-yl)oxy)-7-(3-methoxy-1-methyl-1H-pyrazol-4-yl)quinazolin-4-yl)benzo[d]thiazol-6-amine] | ≥ 8.00 | ≥ 8.00 | ≥ 8.00 |
| COc1cc2ncnc(Nc3ccc4ncsc4c3)c2cc1-c1cnn([C@H]2CCNC[C@@H]2F)c1 (racemic) [Example 168, trans-N-(6-(1-((3S,4S)-3-fluoropiperidin-4-yl)-1H-pyrazol-4-yl)-7-methoxyquinazolin-4-yl)benzo[d]thiazol-6-amine] | ≥ 8.00 | ≥ 8.00 | 7.30 to 8.00 |
